Reference: US6706663B2, “Herbicidal 3-heterocyclic substituted benzisothiazole and benzisoxazole compounds” (Wyeth, priority 2000, dated 2004)

Tests used:
[1] = test system: CYPSE (Cyperus serotinus); experiment: Flooded paddy, preemergence weed control; format: in vivo, Rottb.; conditions: rate 0.0320 kg/ha, rated 3-4 weeks after treatment, 0-9 rating scale
Summary of the method: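 Herbicidal effect was scored visually on a 0–9 scale against an untreated control 3–4 weeks after treatment. Compounds were applied preemergence as 50/50 v/v aqueous/acetone mixtures into flood water (1.5–3 cm deep over silt loam), at roughly 0.0080 to 0.1250 kg/ha active ingredient.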

[2] = test system: ABUTH (Abutilon theophrasti); experiment: Postemergence herbicidal evaluation; format: in vivo, Medic.
Summary of the method: (§1)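 Visual 0–9 injury scores versus control plants, covering stand, vigour, malformation, size, chlorosis and general appearance, taken four to five weeks post-spray and averaged over replicate tests. Plants were sprayed at roughly two weeks old and held on greenhouse benches.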

CYPIR (Cyperus iria) = experiment: Flooded paddy, preemergence weed control; format: in vivo; conditions: rated 3-4 weeks after treatment, 0-9 rating scale
Summary of the method: (§2)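 Seeds or propagules were planted in the top 0.5 cm of silt loam soil and kept flooded 1.5–3 cm above the surface throughout, then held in the greenhouse. Injury was rated visually on a 0–9 scale against untreated controls, covering stand, vigor, malformation, size and chlorosis.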

[3] = test system: MOOVA (Monochoria vaginalis); experiment: Flooded paddy, preemergence weed control; format: in vivo, Presl.; conditions: rated 3-4 weeks after treatment, 0-9 rating scale
Summary of the method: as §2

[4] = test system: CHEAL (Chenopodium album); experiment: Postemergence herbicidal evaluation; format: in vivo, L.
Summary of the method: as §1

[5] = test system: AMBEL (Ambrosia artemisifolia); experiment: Postemergence herbicidal evaluation; format: in vivo, L.
Summary of the method: as §1

[6] = test system: CASOB (Cassia obtusifolia); experiment: Postemergence herbicidal evaluation; format: in vivo, L.
Summary of the method: as §1

[7] = test system: IPOHE (Ipomoea hederacea); experiment: Postemergence herbicidal evaluation; format: in vivo, (L.) Jacq.
Summary of the method: as §1

SETVI (Setaria viridis) [8] = experiment: Postemergence herbicidal evaluation; format: in vivo, (L.) Beau
Summary of the method: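 Seedlings about two weeks old were sprayed with compound in 50/50 acetone/water plus 0.5% TWEEN 20, at the equivalent of about 0.0040 to 1.000 kg/ha. Plants were kept in a greenhouse and visually rated 0-9 against a control four to five weeks after treatment. Repeat tests were averaged.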

GALAP (Galium aparine) [9] = experiment: Preemergence herbicidal evaluation; format: in vivo; conditions: preemergence, rated 4-5 weeks after treatment
Summary of the method: (§3)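 Steps: mix seeds with potting soil; plant on ~1 inch soil per cup; spray compound in aqueous acetone; hold on greenhouse benches with routine watering; rate 0–9 visually against control at 4–5 weeks.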

SETVI (Setaria viridis) [10] = experiment: Preemergence herbicidal evaluation; format: in vivo, (L.) Beau; conditions: preemergence, rated 4-5 weeks after treatment
Summary of the method: as §3

[11] = test system: ECHCG (Echinochloa crus-galli); experiment: Preemergence herbicidal evaluation; format: in vivo, (L.) Beau; conditions: preemergence, rated 4-5 weeks after treatment
Summary of the method: as §3

[12] = test system: CHEAL (Chenopodium album); experiment: Preemergence herbicidal evaluation; format: in vivo, L.; conditions: preemergence, rated 4-5 weeks after treatment
Summary of the method: as §3

[13] = test system: AMBEL (Ambrosia artemisifolia); experiment: Preemergence herbicidal evaluation; format: in vivo, L.; conditions: preemergence, rated 4-5 weeks after treatment
Summary of the method: as §3

[14] = test system: CASOB (Cassia obtusifolia); experiment: Preemergence herbicidal evaluation; format: in vivo, L.; conditions: preemergence, rated 4-5 weeks after treatment
Summary of the method: as §3

[15] = test system: TRZAWR (Wheat, Winter, cv Riband); experiment: Postemergence herbicidal evaluation; format: in vivo, Triticum aestivum
Summary of the method: as §1

GALAP (Galium aparine) [16] = experiment: Postemergence herbicidal evaluation; format: in vivo
Summary of the method: as §1

ORYSAT (Rice, Tebonnet) [17] = experiment: Preemergence herbicidal evaluation; format: in vivo, Oryza sativa, (L.) Tebonnet; conditions: preemergence, rated 4-5 weeks after treatment
ORYSAT (Rice, Tebonnet) [18] = experiment: Postemergence herbicidal evaluation; format: in vivo, Oryza sativa, (L.) Tebonnet
Summary of the method: as §1

Substance: 1-methyl-3-[3-(1,3-oxathiolan-2-yl)-1,2-benzisothiazol-5-yl]-6-(trifluoromethyl)uracil S′,S′-dioxide [Compound 32]
- herbicidal rating, CYPSE [1]: 0.0
- Postemergence herbicidal rating, ABUTH ([2]; rate 0.0320 kg/ha): 9.0
- Postemergence herbicidal rating, ABUTH ([2]; rate 0.0620 kg/ha): 9.0
- herbicidal rating, CYPIR (CYPIR (Cyperus iria); rate 0.0320 kg/ha): 4.0
- herbicidal rating, CYPIR (CYPIR (Cyperus iria); rate 0.1250 kg/ha): 7.0
- herbicidal rating, MOOVA ([3]; rate 0.0320 kg/ha): 6.0
- herbicidal rating, MOOVA ([3]; rate 0.1250 kg/ha): 9.0
- Postemergence herbicidal rating, CHEAL ([4]; rate 0.0320 kg/ha): 9.0
- Postemergence herbicidal rating, CHEAL ([4]; rate 0.0620 kg/ha): 9.0
- Postemergence herbicidal rating, AMBEL ([5]; rate 0.0320 kg/ha): 9.0
- Postemergence herbicidal rating, AMBEL ([5]; rate 0.0620 kg/ha): 9.0
- Postemergence herbicidal rating, CASOB ([6]; rate 0.0320 kg/ha): 7.0
- Postemergence herbicidal rating, CASOB ([6]; rate 0.0620 kg/ha): 9.0
- Postemergence herbicidal rating, IPOHE ([7]; rate 0.0320 kg/ha): 9.0
- Postemergence herbicidal rating, IPOHE ([7]; rate 0.0620 kg/ha): 9.0
- Postemergence herbicidal rating, SETVI (SETVI (Setaria viridis) [8]; rate 0.0320 kg/ha): 3.0
- Postemergence herbicidal rating, SETVI (SETVI (Setaria viridis) [8]; rate 0.0620 kg/ha): 6.0
- GALAP preemergence herbicidal rating (GALAP (Galium aparine) [9]; Rate 0.0620 kg/ha): 9.0
- GALAP preemergence herbicidal rating (GALAP (Galium aparine) [9]; Rate 0.1250 kg/ha): 9.0
- GALAP preemergence herbicidal rating (GALAP (Galium aparine) [9]; Rate 0.2500 kg/ha): 9.0
- SETVI preemergence herbicidal rating (SETVI (Setaria viridis) [10]; Rate 0.0620 kg/ha): 9.0
- SETVI preemergence herbicidal rating (SETVI (Setaria viridis) [10]; Rate 0.1250 kg/ha): 9.0
- SETVI preemergence herbicidal rating (SETVI (Setaria viridis) [10]; Rate 0.2500 kg/ha): 9.0
- ECHCG preemergence herbicidal rating ([11]; Rate 0.0620 kg/ha): 6.5
- ECHCG preemergence herbicidal rating ([11]; Rate 0.1250 kg/ha): 9.0
- ECHCG preemergence herbicidal rating ([11]; Rate 0.2500 kg/ha): 9.0
- CHEAL preemergence herbicidal rating ([12]; Rate 0.0620 kg/ha): 9.0
- CHEAL preemergence herbicidal rating ([12]; Rate 0.1250 kg/ha): 9.0
- CHEAL preemergence herbicidal rating ([12]; Rate 0.2500 kg/ha): 9.0
- AMBEL preemergence herbicidal rating ([13]; Rate 0.0620 kg/ha): 9.0
- AMBEL preemergence herbicidal rating ([13]; Rate 0.1250 kg/ha): 9.0
- AMBEL preemergence herbicidal rating ([13]; Rate 0.2500 kg/ha): 9.0
- CASOB preemergence herbicidal rating ([14]; Rate 0.0620 kg/ha): 6.5
- CASOB preemergence herbicidal rating ([14]; Rate 0.1250 kg/ha): 8.0
- CASOB preemergence herbicidal rating ([14]; Rate 0.2500 kg/ha): 9.0
- Postemergence herbicidal rating, TRZAWR ([15]; rate 0.0320 kg/ha): 5.0
- Postemergence herbicidal rating, TRZAWR ([15]; rate 0.0620 kg/ha): 5.5
- Postemergence herbicidal rating, GALAP (GALAP (Galium aparine) [16]; rate 0.0320 kg/ha): 2.0
- Postemergence herbicidal rating, GALAP (GALAP (Galium aparine) [16]; rate 0.0620 kg/ha): 6.0
- ORYSAT preemergence herbicidal rating (ORYSAT (Rice, Tebonnet) [17]; Rate 0.0620 kg/ha): 5.0
- ORYSAT preemergence herbicidal rating (ORYSAT (Rice, Tebonnet) [17]; Rate 0.1250 kg/ha): 7.5
- ORYSAT preemergence herbicidal rating (ORYSAT (Rice, Tebonnet) [17]; Rate 0.2500 kg/ha): 8.5
- Postemergence herbicidal rating, ORYSAT (ORYSAT (Rice, Tebonnet) [18]; rate 0.0320 kg/ha): 5.0
- Postemergence herbicidal rating, ORYSAT (ORYSAT (Rice, Tebonnet) [18]; rate 0.0620 kg/ha): 5.5
